Data taken from patent US12478661B2, “Lung cell treatments to prevent or treat disease” (THE JOHNS HOPKINS UNIVERSITY, priority 2017, dated 2025).

Tests used:
[1] = tested on: primary ciliated normal human bronchial epithelial cells (NHBEs); assay: Airway surface liquid (ASL) thickness in primary NHBEs at air liquid interface; type: cell-based; details: CATR 20 μM; for effect on the ANT2 overexpression increase in ASL: BKA 4 μM apical 18 hours, apyrase 10 units 4 hours
Experimental: (§1) The apical surface of cells was washed once with PBS 18 hours prior to the addition of Texas Red. ASL was visualized by adding 10-kD Texas Red-dextran (17.5 μl per 12-well insert, ThermoFisher) to the apical surface of NHBE or HBEKT cultures at air liquid interface, as previously described. ASL was imaged 4 hours later by acquiring 4×4 tiled z-stacks by live-cell confocal microscopy with a heat and CO2 controlled stage (Zeiss 780 with a 40× water objective). Fluorinert ([…] was added to the top of the insert cultures immediately prior to imaging to prevent evaporation. Z-stacks were analyzed by segmentation and pixel thickness analysis. For experiments with ANT inhibitors, CATR (20 μM, Sigma) and BKA (4 μM, Sigma) in 20 μl PBS (or control PBS alone) were added to the apical surface of ALI cultures (NHBEs or HBEKTs) 18 hours prior to ASL assessment. Texas Red was added 4 hours prior to ASL testing. For apyrase treatment, 10 units of apyrase (Sigma) was added with Texas Red-dextran as described above 4 hours prior to ASL assessment.
Thickness across the sample was computed using a custom script, written in Matlab (Mathworks, Natick, MA). Briefly, for each value x in the three-dimensional images, Im(x,y, z), the resultant (y, z) slice was segmented using adaptive thresholding (Matlab command: imbinarize), followed by operations to fill holes (imfill), morphological opening (imopen) and filtering of small regions (bwareaopen) (FIG. 13a). The threshold level was adjusted after preprocessing the complete image and the process repeated. For each y in this binary image, the number of segmented pixels was counted, giving a measure of the thickness in the (x, y) location; see FIG. 13. This gave a histogram of depths over the image (FIG. 13c). An average depth was computed for all pixels in which a non-zero depth was detected (to avoid edge effects). The process was repeated by fixing y and working with the (x, z) slice. The differences between the averages were typically less than 1-2%. Thickness in pixels was converted to μm using a slice thickness of 0.46 μm, the step size used to collect the z-stack.

HBEKT cells [2] = assay: Airway surface liquid (ASL) height in HBEKTs at air liquid interface; type: cell-based, human; details: CATR 20 μM, BKA 4 μM
Experimental: as §1
Thickness across the sample was computed using a custom script, written in Matlab (Mathworks, Natick, MA). […] For each y in this binary image, the number of segmented pixels was counted, giving a measure of the thickness in the (x, y) location; see FIG. 13. […]

HBEKT cells [3] = assay: Seahorse Mitostress cellular metabolism (OCR, ATP production, proton leak); type: cell-based, human; details: 30 min after injection, CATR 20 μM, BKA 4 μM
Experimental: For metabolic analysis, HBEKT cells were cultured in 96-well Seahorse assay plates (Agilent) and infected with adenovirus constructs for ANT1, ANT2 and control for target overexpression at 48 hours (MOI 40, Vector BioLabs) or siRNA target suppression using siRNA and Lipofectamine as described above for ANT1, ANT2 or non-targeting control siRNA at 72 hours. After viral infection or siRNA transfection, cells were treated for 4 hours with KSFM media alone or 20% CSE. Cells were washed once in KSFM, followed by washes in buffered Seahorse Assay medium (pH 7.4) and subsequent metabolic testing according to the manufacturer's protocol (Agilent Seahorse XF96). Oligomycin (2 μM, ATPase inhibitor), FCCP (0.25 μM mitochondrial uncoupler) and a cocktail of rotenone (0.5 μM, ETC complex I inhibitor) and antimycin A (0.5 μM, ETC complex III inhibitor) were sequentially injected after three basal rates were measured. Sample measurements were normalized to total cellular mass determined by CyQuant Assay according to the manufacturer protocol (Molecular Probes, ThermoFisher). For experiments including ANT specific inhibitors, carboxyatractyloside (CATR, 20-μM, Sigma), Bongkrekic acid (BKA, 4-μM, Sigma) or vehicle control were injected into wells after basal OCR measurements were taken followed by repeat OCR measurements 30 minutes after compound injection. […]

CO[C@H](C/C=C\C=C\CC/C=C/C[C@H](C)/C=C/C(=C\C(=O)O)CC(=O)O)/C(C)=C\C=C(/C)C(=O)O [Bongkrekic acid]
effect on the ANT2 overexpression increase in ASL [1]: abrogated | effect on the ANT2 enhancement of ASL height (HBEKT cells [2]): abolished | ATP production after ANT inhibitor (HBEKT cells [3]): halted | basal oxidative respiration after ANT inhibitor (HBEKT cells [3]): halted

C=C1[C@@H]2CC[C@H]3[C@]4(C)C[C@H](O[C@@H]5O[C@H](CO)[C@@H](OS(=O)(=O)O)[C@H](OS(=O)(=O)O)[C@H]5OC(=O)CC(C)C)CC(C(=O)O)(C(=O)O)[C@H]4CC[C@]3(C2)[C@H]1O [carboxyatractyloside]
ASL in control virus-treated cells [1]: trend towards decreasing ASL | effect on the ANT2 overexpression increase in ASL [1]: abrogated | effect on the ANT2 enhancement of ASL height (HBEKT cells [2]): abolished

apyrase
effect on the ANT2 overexpression increase in ASL [1]: reversed
